Experiments:
FGF21 gene in liver = test: Expression of FGF21 gene in liver by RT-PCR after oral administration to neonatal mice; format: in vivo, C57BL/6J male mice
Source text: (§1) Bacterial cell powder (2.4×10^11 cfu/g) of Bifidobacterium breve M-16V (NITE BP-02622) triturated with starch was suspended in physiological saline to prepare a Bifidobacterium liquid of 2.5×10^9 cfu/ml.
(§2) Lactulose (manufactured by Morinaga Milk Industry Co., Ltd.), raffinose (product name: Nitten Rraffinose, manufactured by Nippon Beet Sugar Manufacturing Co., Ltd.), and galactooligosaccharide were mixed at a ratio by weight of 1:1:1 and diluted in distilled water to prepare an oligosaccharide stock solution having a total final concentration of 250 mg/ml. The galactooligosaccharide is obtained by removing monosaccharides and disaccharides from a commercial product (product name: Oligomate 55N, manufactured by Yakult Pharmaceutical Industry Co., Ltd.) and contains about 65% by weight of Galβ1-4Galβ1-4Glc (4′-galactosyl lactose) and about 15% by weight of Galβ1-6Galβ1-4Glc (6′-galactosyl lactose). […]
(§3) Each animal was subjected to anatomy at 21 days old and the serum and liver were taken out of the body. The FGF21 concentration in the serum and the expression of FGF21 gene in the liver were determined. The FGF21 concentration in the serum was measured with an ELISA kit (manufactured by R&D Systems). The expression of FGF21 gene in the liver was measured by RT-PCR. […]

FGF21 = FGF21 concentration in serum by ELISA after oral administration to neonatal mice; format: in vivo, C57BL/6J male mice; conditions: 100 μl once a day during 6 to 20 days old, serum taken at 21 days old
Source text: as §1, §2, §3

Bifidobacterium breve M-16V (NITE BP-02622) [Group B]
Expression of FGF21 gene in the liver compared with group A and group C (FGF21 gene in liver; at 21 days old, versus group A (vehicle) and group C (oligosaccharide)): significantly higher
Expression of FGF21 gene in liver (values relative to the value of Group A which was taken as 100.0), Average (FGF21 gene in liver; neonatal mice, 100 μl once a day during 6 to 20 days old, liver taken at 21 days old, RT-PCR, Group A (vehicle) = 100.0): 197.7
FGF21 Concentration in serum, Average (FGF21): 397.3 pg/mL

Source: patent US11857579B2, “Composition for promoting the secretion of FGF21” (MORINAGA MILK INDUSTRY CO., LTD., priority 2018, dated 2024)
